Measured values published in patent US20040038855A1 (priority 1999, published 2004).
pKi: −log10 of the molar value. Read-outs that look alike come from different tables or passages of the source.

How the values were obtained:
rat MCH1 receptor = biological target: T1, rat MCH1 receptor (Rattus norvegicus, UniProt P97639); assay: Binding affinity (Ki) at the rat MCH1 receptor; conditions: for Ki: Examples 38-141, read-out: Ki (nM) rMCH1; for pKi: Table 3c, read-out: rMCH1 Ki
T1 construct: expressed in transfected cells
T1 sequence (P97639 whole entry): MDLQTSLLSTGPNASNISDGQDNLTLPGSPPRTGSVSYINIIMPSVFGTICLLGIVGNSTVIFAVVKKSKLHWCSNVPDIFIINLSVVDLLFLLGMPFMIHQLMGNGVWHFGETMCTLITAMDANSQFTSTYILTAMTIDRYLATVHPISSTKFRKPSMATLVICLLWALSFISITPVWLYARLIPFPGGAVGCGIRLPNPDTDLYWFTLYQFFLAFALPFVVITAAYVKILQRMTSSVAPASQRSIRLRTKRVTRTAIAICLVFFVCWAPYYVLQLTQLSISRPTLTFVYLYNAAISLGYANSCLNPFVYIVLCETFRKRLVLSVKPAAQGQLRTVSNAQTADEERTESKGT

[1] = biological target: T2, human Histamine H1 receptor (Homo sapiens, UniProt P35367); assay: Binding affinity at the human histamine H1 receptor; conditions: Table 3c; read-out: hH1 Ki
T2 construct: expressed in transfected cells
T2 sequence (P35367 whole entry): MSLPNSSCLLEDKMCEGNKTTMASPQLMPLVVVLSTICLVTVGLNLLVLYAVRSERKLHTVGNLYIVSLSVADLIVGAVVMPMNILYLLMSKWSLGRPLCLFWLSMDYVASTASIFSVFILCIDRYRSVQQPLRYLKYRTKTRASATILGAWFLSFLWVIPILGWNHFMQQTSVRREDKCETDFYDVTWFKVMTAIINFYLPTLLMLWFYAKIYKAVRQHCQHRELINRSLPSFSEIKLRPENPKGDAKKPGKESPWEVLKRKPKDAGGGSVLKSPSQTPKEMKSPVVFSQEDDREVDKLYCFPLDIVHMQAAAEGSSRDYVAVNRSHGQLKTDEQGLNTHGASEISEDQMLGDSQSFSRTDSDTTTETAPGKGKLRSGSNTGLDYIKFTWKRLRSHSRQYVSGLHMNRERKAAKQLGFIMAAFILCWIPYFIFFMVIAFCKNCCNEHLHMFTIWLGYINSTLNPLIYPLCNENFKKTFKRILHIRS
Procedure, shortened: (§1)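 Receptor binding read-out throughout; membranes expressing human D1 or D2 receptor were used for those two targets.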

[2] = biological target: T3, human Dopamine D2 receptor (Homo sapiens, UniProt P14416); assay: Binding affinity at the human dopamine D2 receptor; conditions: Table 3c; read-out: hD2 Ki
T3 construct: purchased BioSignal, Inc. (Montreal, Canada)
T3 sequence (P14416 whole entry): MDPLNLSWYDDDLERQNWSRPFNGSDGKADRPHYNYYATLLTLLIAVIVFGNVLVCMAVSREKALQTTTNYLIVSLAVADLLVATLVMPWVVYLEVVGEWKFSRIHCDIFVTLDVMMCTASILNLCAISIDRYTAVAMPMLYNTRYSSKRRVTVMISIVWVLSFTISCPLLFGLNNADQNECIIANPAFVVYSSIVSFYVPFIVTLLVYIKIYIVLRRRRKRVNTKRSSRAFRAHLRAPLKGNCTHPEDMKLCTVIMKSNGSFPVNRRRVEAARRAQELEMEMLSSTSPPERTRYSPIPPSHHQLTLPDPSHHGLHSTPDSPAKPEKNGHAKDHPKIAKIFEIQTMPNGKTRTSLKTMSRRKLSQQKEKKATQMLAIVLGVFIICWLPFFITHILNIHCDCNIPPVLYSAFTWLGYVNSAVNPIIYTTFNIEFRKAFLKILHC
Procedure, shortened: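 Radioligand-type binding on purchased cell membranes expressing human D1 or D2 receptors; D2, D1 and α2 assays follow procedures of an earlier patent, D5 binding follows a separate patent procedure.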

[3] = biological target: T4, human Alpha-1a Adrenergic receptor (Homo sapiens, UniProt P35348); assay: Binding affinity at the human alpha-1A adrenergic receptor; conditions: Table 3c; read-out: hAlpha-1a Ki
T4 construct: expressed in transfected cells
T4 sequence (P35348 1-466): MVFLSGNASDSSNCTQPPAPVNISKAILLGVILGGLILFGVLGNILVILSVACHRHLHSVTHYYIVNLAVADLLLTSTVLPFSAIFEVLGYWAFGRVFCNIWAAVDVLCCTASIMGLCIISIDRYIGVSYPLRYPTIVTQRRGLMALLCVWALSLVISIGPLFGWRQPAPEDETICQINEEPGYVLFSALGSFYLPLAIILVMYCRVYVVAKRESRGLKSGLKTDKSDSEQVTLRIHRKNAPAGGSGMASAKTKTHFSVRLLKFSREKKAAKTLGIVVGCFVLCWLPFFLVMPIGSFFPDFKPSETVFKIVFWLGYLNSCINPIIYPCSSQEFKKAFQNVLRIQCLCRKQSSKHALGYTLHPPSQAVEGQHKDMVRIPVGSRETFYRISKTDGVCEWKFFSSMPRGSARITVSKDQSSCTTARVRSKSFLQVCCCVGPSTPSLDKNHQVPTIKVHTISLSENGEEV
Procedure, shortened: as §1

Ki (rat MCH1 receptor) [nM] | pKi (rat MCH1 receptor) | pKi [1] | pKi [2] | pKi [3] | Structure (SMILES)
9.3 | 8.03 | 6.48 | 7.18 | 6.69 | CC(C)C(=O)Nc1cccc(C2CCN(CC[C@@H](Oc3cccc(Cl)c3)c3ccccc3)CC2)c1 [Example 124]
50 | 7.30 | 5.10 | 5.98 | 5.82 | CC(=O)c1ccccc1O[C@@H](CCN1CCC(c2cccc(NC(=O)C(C)C)c2)CC1)c1ccccc1 [Example 126]
6.6 | 8.18 | 5.77 | 6.92 | 6.65 | CC(C)C(=O)Nc1cccc(C2CCN(CC[C@H](Oc3ccccc3F)c3ccccc3)CC2)c1 [Example 127]
25.7 | 7.59 | 5.38 | 6.35 | 6.78 | CC(C)C(=O)Nc1cccc(C2CCN(CC[C@@H](Oc3ccccc3[N+](=O)[O-])c3ccccc3)CC2)c1 [Example 133]
14.3 | 7.84 | 5.01 | 6.08 | 6.21 | CCOc1ccccc1O[C@@H](CCN1CCC(c2cccc(NC(=O)C(C)C)c2)CC1)c1ccccc1 [Example 136]
3.2 | 8.49 | 5.42 | 5.61 | 5.52 | CC(=O)c1cccc(O[C@@H](CCN2CCC(c3cccc(NC(=O)C(C)C)c3)CC2)c2ccccc2)c1 [Example 141]

The remaining lines, values behind:

Structure (SMILES) | Ki (rat MCH1 receptor) [nM] | pKi (rat MCH1 receptor) | pKi [1] | pKi [2] | pKi [3]
CC(C)C(=O)Nc1cccc(C2CCN(CC[C@H](OC(=O)c3cccc4ccccc34)c3ccccc3)CC2)c1 [Example 125] | 32.5 | 7.49 | < 4.30 | 7.33 | 6.63
CC(=O)Nc1cccc(C2CCN(CCCNC(=O)N3C(=O)OC[C@@H]3c3cc(F)cc(F)c3)CC2)c1 [Example 128] | 31.4 | 7.50 | 4.48 | 4.38 | 6.19
CC(=O)Nc1cccc(C2CCN(CCCNC(=O)N3C(=O)OC[C@@H]3c3cc(F)c(F)c(F)c3)CC2)c1 [Example 129] | 22.3 | 7.65 | 5.19 | 4.38 | 6.42
CC(=O)Nc1cccc(C2CCN(CCCNC(=O)N3C(=O)OC(C)(C)C3c3ccc(F)c(F)c3)CC2)c1 (centres unmarked) [Example 130] | 48.6 | 7.31 | 5.73 | 4.40 | 6.48
CC(=O)Nc1cccc(C2CCN(CCCNC(=O)N3C(=O)O[C@H](C)C3c3ccc(F)c(F)c3)CC2)c1 (some centres unmarked) [Example 131] | 11.8 | 7.93 | 5.55 | 4.72 | 5.61
CC(=O)Nc1cccc(C2CCN(CCCNC(=O)N3C(=O)OCC3Cc3ccc(F)cc3)CC2)c1 (centres unmarked) [Example 132] | 44.6 | 7.35 | 4.40 | 4.38 | 4.96
CC(C)C(=O)Nc1cccc(C2CCN(CC[C@@H](Oc3cccc([N+](=O)[O-])c3)c3ccccc3)CC2)c1 [Example 135] | 19.4 | 7.71 | 6.29 | 6.61 | 6.14
